The conditions of experiment [1]: in vivo; cited from earlier work.
For experiment [2] the following is noted: in vivo; cited from earlier work. This is another data set of the same source.
For experiment [3] the following is noted: in vivo; cited from earlier work. This is another data set of the same source.
The conditions of experiment [4]: in vivo; cited from earlier work. The source holds these as a separate data set.
For experiment [5] the following is noted: in vivo; cited from earlier work. This is another data set of the same source.
Experiment [6] deals with T1, 5-HT2 receptors (Rattus norvegicus, UniProt P14842).
T1 construct: 5-HT2 Receptors in Rat Cortex in vitro; from tissue; host or cells: rat cortex membranes
T1 sequence (P14842 whole entry): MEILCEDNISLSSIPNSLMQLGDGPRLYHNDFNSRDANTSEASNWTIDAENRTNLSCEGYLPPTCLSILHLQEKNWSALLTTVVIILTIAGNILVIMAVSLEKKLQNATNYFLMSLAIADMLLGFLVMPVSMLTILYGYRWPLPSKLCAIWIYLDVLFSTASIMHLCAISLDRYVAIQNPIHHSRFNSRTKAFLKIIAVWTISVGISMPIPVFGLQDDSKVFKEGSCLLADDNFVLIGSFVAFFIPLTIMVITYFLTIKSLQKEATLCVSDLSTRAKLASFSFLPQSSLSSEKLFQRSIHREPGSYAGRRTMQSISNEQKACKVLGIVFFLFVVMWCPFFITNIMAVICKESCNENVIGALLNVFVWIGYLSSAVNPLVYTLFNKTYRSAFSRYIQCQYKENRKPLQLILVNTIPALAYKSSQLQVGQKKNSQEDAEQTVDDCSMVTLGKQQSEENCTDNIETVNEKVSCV
Put plainly: Inhibition of ^3 H-Ketanserin Binding to 5-HT2 Receptors in Rat Cortex in vitro. As to conditions: ^3 H-Ketanserin 0,5 nM; rat cortex membranes; read-out: 5-HT2 binding ^3 H ketanserin, IC50. The procedure: Inhibition of ^3 H-Ketanserin Binding to 5-HT2 Receptors in Rat Cortex in vitro
By this method the inhibition by drugs of the binding of ^3 H-Ketanserin (0,5 nM) to 5-HT2 receptors in membranes from rat is determined in vitro. The method is described in Hyttel, Pharmacol. & Toxicol.

For experiment [7], the target named is dopamine D2 receptors (Rattus norvegicus, UniProt P61169). Put plainly: biochemical. In kind it is binding. The following applies: read-out: Dopamin D2 binding ^3 H spiroperidol, IC50. As for the experimental part:
Inhibition of ^3 H-Spiroperidol Binding to Dopamine D2 Receptors in Rat Corpus Striatum in vitro
By this method the inhibition by drugs of the binding of ^3 H-spiroperidol (0.5 nM) to dopamine D2 receptors in membranes from rat corpus striatum is determined in vitro.

The mark [8] stands for this setting: ^3 H-spiroperidol 0.5 nM, rat corpus striatum membranes.

pIC50: −log10 of the molar value. Where a name gives a salt, the structure may show the parent alone. Read-outs that look alike come from different tables or passages of the source.

Sequence of dopamine D2 receptors (P61169 whole entry): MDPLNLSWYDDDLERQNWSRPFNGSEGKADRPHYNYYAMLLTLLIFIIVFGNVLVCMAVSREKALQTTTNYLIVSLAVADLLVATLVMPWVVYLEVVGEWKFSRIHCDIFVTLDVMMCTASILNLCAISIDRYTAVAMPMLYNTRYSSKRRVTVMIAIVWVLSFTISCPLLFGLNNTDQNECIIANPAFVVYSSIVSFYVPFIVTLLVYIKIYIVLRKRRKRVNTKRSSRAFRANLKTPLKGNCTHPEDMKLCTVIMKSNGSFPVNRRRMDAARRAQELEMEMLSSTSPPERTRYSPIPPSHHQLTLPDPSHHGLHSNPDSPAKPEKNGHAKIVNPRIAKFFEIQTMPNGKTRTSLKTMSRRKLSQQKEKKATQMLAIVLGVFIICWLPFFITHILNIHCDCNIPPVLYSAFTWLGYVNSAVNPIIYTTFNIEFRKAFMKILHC

Take `Cc1nc2sccn2c(=O)c1CCN1CCC(=C(c2ccc(F)cc2)c2ccc(F)cc2)CC1` [ritanserin]: the “antidepressant effect / depressive symptoms of schizophrenia” value in experiment [1] is “shown to be an antidepressant and to improve depressive symptoms of schizophrenia”. In experiment [2], the “effects in an animal test indicative of anxiolytic drug activity” value is “exert effects in an animal test indicative of anxiolytic drug activity”. Besides, the quality of sleep result in experiment [3] is recorded as “improve the quality of sleep”. Also, the neuroleptic-induced parkinsonism entry in experiment [4] is reported as “relieve neuroleptic-induced parkinsonism”. Besides, the “abuse of alcohol and drugs” value in experiment [5] was “reduce abuse of alcohol and drugs”.

Turning to `CN(CCCN1CCNC1=O)CCc1cn(-c2ccc(F)cc2)c2ccc(Cl)cc12` [Compound 4u, 1-[3-[[2-[5-chloro-1-(4-fluorophenyl)-3-1H-indolyl]ethyl]methylamino]propyl]-2-imidazolidinone hydrochloride], the negative logarithm of the IC50 (pIC50) is 9.00 in experiment [6] and 7.72 in experiment [7].

For the compound `O=C1NCCN1CCC1CCN(CCOc2cn(-c3ccc(F)cc3)c3ccc(Cl)cc23)CC1` [Compound 4k, 1-[2-[1-[2-[5-Chloro-1-(4-fluorophenyl)-3-1H-indolyloxy]ethyl]-4-piperidinyl]ethyl]-2-imidazolidinone], the pIC50 in experiment [6] was 7.68; in experiment [7] (setting [8]) it was 8.59.

`C[C@@H](COc1cn(-c2ccc(F)cc2)c2ccc(Cl)cc12)N(C)C` [Compound 6a, (S)-N, N-Dimethyl-2-[5-chloro-1-(4-fluorophenyl) -3-1H-indolyloxy]-1-methylethylamine Oxalate]: the pIC50 in experiment [6] was 8.13; in experiment [7] it was 8.26.

Turning to “5-Chloro-1-(4-fluorophenyl)-3-[3-(4-piperidinyl)propyl]-1H-indole hydrochloride [Compound 3d]”, the negative-log IC50 (pIC50) is 6.96 in experiment [6] and 7.68 in experiment [7] (setting [8]).

`C[C@H](COc1cn(-c2ccc(F)cc2)c2ccc(Cl)cc12)N(C)C` [Compound 6b, (R)-N,N-Dimethyl-2-[5-chloro-1-(4-fluorophenyl)-3-1H-indolyloxy]-1-methylethylamine oxalate]: the pIC50 in experiment [6] is 7.68; in experiment [7] it was 7.43.

Consider `CN(C)CCSc1cn(-c2ccc(F)cc2)c2ccc(Cl)cc12` [Compound 4q, N,N-Dimethyl-2-[5-chloro-1-(4-fluorophenyl)-3-1H-indolylthio]ethylamine hydrochloride], for which the pIC50 in experiment [6] is 7.37; in experiment [7], 6.85.

These data come from patent US5789404A, “3-substituted 1-arylindole compounds” (H. Lundbeck A/S, priority 1993, dated 1998).
